Source: US4731370A, “Pyridyl ester containing 1,4-dihydropyridine derivatives and salts thereof and pharmaceutical composition containing the same” (Toyama Chemical Co., Ltd., priority 1984, dated 1988)

Test system: coronary vessel (isolated guinea pig heart)
Experiment: Coronary vasodilating activity (isolated perfused guinea pig heart, coronary effluent)
Design: species or system guinea pig (Hartley strain)
Details: Langendorff perfusion, 0.1 ml into aorta, hydrochloride
Protocol: (§1) The compounds of this invention to be tested were used in the form of a hydrochloride.
The heart of a guinea pig (Hartley strain, male, 500-700 g, 3 heads per group) was isolated and set in the Landendorff perfusing apparatus. About 0.5% defibrinated blood was fed to the apparatus, and the Krebs bicarbonate solution, into which a mixed gas consisting of 95% of O2 and 5% of CO2 had been bubbled was perfused over the heart, after which a 1 mg/ml solution of the test compound in an aqueous solution containing 10% by volume of dimethylsulfoxide and 10% of polyoxyethylfatty acid glyceride [Cremophor EL manufactured by Sigma] was prepared, diluted with a saline solution to the desired concentration, and then administered into the heart in an amount of 0.1 ml through the rubber tube attached to the cannula inserted retrogressively into the aorta. The vasodilating activity was determined by measuring the amount of the solution effluent from the coronary vessel after passing through the aorta by means of an electric drop counter (universal drop counter manufactured by Natsume Seisakusho) and indicated as ED50 value which is the amount necessary for the amount of the effluent solution to increase 50% as compared with those before addition of the test compound.

Row | SMILES | ED50 (amount necessary for the amount of the effluent solution to increase 50%) [μg/i.c.]
1 | CCOC(=O)C1=C(C)NC(C)=C(C(=O)OCCOC/C(C)=C/c2ccc(Cc3cccnc3)cc2)C1c1cccc([N+](=O)[O-])c1 (centres unmarked) [compound 12] | 0.026
2 | CCOC(=O)C1=C(C)NC(C)=C(C(=O)OCCOC/C=C/c2ccc(Cn3ccnc3)cc2)C1c1cccc([N+](=O)[O-])c1 (centres unmarked) [compound 13] | 0.036
3 | CCOC(=O)C1=C(C)NC(C)=C(C(=O)OCCOCc2ccc(Cn3ccnc3)cc2)C1c1cccc([N+](=O)[O-])c1 (centres unmarked) [compound 14] | 0.023
4 | CCOC(=O)C1=C(C)NC(C)=C(C(=O)OCCOCc2ccc(Cc3cccnc3)cc2)C1c1cccc([N+](=O)[O-])c1 (centres unmarked) [compound 15] | 0.0092
5 | CCOC(=O)C1=C(C)NC(C)=C(C(=O)OCCOC/C=C/c2ccc(Cc3cccnc3)cc2)C1c1cccc([N+](=O)[O-])c1 (centres unmarked) [compound 16] | 0.0105
6 | COC(=O)C1=C(C)NC(C)=C(C(=O)OCCOC/C(C)=C/c2ccc(Cc3cccnc3)cc2)C1c1cccc([N+](=O)[O-])c1 (centres unmarked) [compound 17] | 0.012
7 | CCOC(=O)C1=C(C)NC(C)=C(C(=O)OCCOCCCc2ccc(Cc3cccnc3)cc2)C1c1cccc([N+](=O)[O-])c1 (centres unmarked) [compound 18] | 0.026
8 | CCOC(=O)C1=C(C)NC(C)=C(C(=O)OCCOC/C(C)=C/c2ccc(Oc3cccnc3)cc2)C1c1cccc([N+](=O)[O-])c1 (centres unmarked) [compound 19] | 0.017
9 | CCOC(=O)C1=C(C)NC(C)=C(C(=O)OCCOCCCc2ccc(Oc3cccnc3)cc2)C1c1cccc([N+](=O)[O-])c1 (centres unmarked) [compound 20] | 0.024
10 | COC(=O)C1=C(C)NC(C)=C(C(=O)OCCOC/C=C/c2ccc(Cc3cccnc3)cc2)C1c1cccc([N+](=O)[O-])c1 (centres unmarked) [compound 22] | 0.016
11 | CC1=C(C(=O)OCCOC/C=C/c2ccc(Cc3cccnc3)cc2)C(c2cccc([N+](=O)[O-])c2)C(C(=O)OCCN(C)Cc2ccccc2)=C(C)N1 (centres unmarked) [compound 23] | 0.019
12 | CC1=C(C(=O)OCCOC/C(C)=C/c2ccc(Cc3cccnc3)cc2)C(c2cccc([N+](=O)[O-])c2)C(C(=O)OC(C)C)=C(C)N1 (centres unmarked) [compound 29] | 0.019

Test system: vertebral artery blood flow of a dog
Experiment: Vertebral artery blood flow increasing activity
Format: in vivo, dog (mongrel)
Details: i.v., amount with same activity as 1 mg/kg (i.v.) papaverine hydrochloride, ratio to papaverine hydrochloride
Protocol: as §1
The vertebral artery blood flow of a dog (mongrel, 12-22 kg, 2-3 heads per group) anesthetized with pentobarbital sodium (30 mg/kg, i.v.) was measured by means of an electromagnetic flow meter (MFV-2100 manufactured by Nihon Kohden Kogyo).
The test compounds 1, 3 and 10 were adjusted to a concentration of 1 mg/ml with distilled water, and then diluted with a saline solution to the desired concentrations, after which the thus diluted solutions were intravenously administered, and the test compounds 12, 15, 18, 19, 20, 24, 29, 30, 32 and 33 were formed into solutions in the same manner as in Item 1 above and then intravenously administered.

Row | SMILES | Effect ratio
13 | CC1=C(C(=O)OCCN(C)C/C(C)=C/c2ccc(Cc3cccnc3)cc2)C(c2cccc([N+](=O)[O-])c2)C(C(=O)OC(C)C)=C(C)N1 (centres unmarked) [compound 1] | 238
14 | COCCOC(=O)C1=C(C)NC(C)=C(C(=O)OCCN(C)C/C(C)=C/c2ccc(Cc3cccnc3)cc2)C1c1cccc([N+](=O)[O-])c1 (centres unmarked) [compound 3] | 385
15 | CCOC(=O)C1=C(C)NC(C)=C(C(=O)OCCOC/C(C)=C/c2ccc(Cc3cccnc3)cc2)C1c1cccc([N+](=O)[O-])c1 (centres unmarked) [compound 12] | 345
16 | CCOC(=O)C1=C(C)NC(C)=C(C(=O)OCCOCc2ccc(Cc3cccnc3)cc2)C1c1cccc([N+](=O)[O-])c1 (centres unmarked) [compound 15] | 238
17 | CCOC(=O)C1=C(C)NC(C)=C(C(=O)OCCOCCCc2ccc(Cc3cccnc3)cc2)C1c1cccc([N+](=O)[O-])c1 (centres unmarked) [compound 18] | 233
18 | CCOC(=O)C1=C(C)NC(C)=C(C(=O)OCCOC/C(C)=C/c2ccc(Oc3cccnc3)cc2)C1c1cccc([N+](=O)[O-])c1 (centres unmarked) [compound 19] | 550
19 | CCOC(=O)C1=C(C)NC(C)=C(C(=O)OCCOCCCc2ccc(Oc3cccnc3)cc2)C1c1cccc([N+](=O)[O-])c1 (centres unmarked) [compound 20] | 535
20 | CC1=C(C(=O)OCCOC/C(C)=C/c2ccc(Cc3cccnc3)cc2)C(c2cccc([N+](=O)[O-])c2)C(C(=O)OC(C)C)=C(C)N1 (centres unmarked) [compound 29] | 426

Test system: Thromboxane-Synthesizing Enzyme
Experiment: Thromboxane-synthesizing enzyme-inhibitory activity (MDA production in platelet-rich plasma after oral dosing)
Format: in vivo, rat (Wistar strain)
Details: rat, 3 mg/kg, blood after one hour
Protocol: as §1
To a rat (Wistar strain, male, 300-350 g, 4 heads per group) which had been starved overnight was orally administered a test compound solution, and blood was collected from the abdominal aorta using citric acid after one hour. Two milliliters of a 1×10^9 /ml platelet-rich plasma (PRP) was preincubated at 37° C. for 2 minutes. Subsequently, 0.1 ml of 10 mM sodium archidonate was added, and the resulting mixture was subjected to reaction for 6 minutes, after which indomethacin was added thereto to terminate the reaction. The reaction mixture was subjected to deproteinization treatment and reacted with thiobarbituric acid (TBA) reagent, after which the reaction mixture was subjected to extraction with 3 ml of n-butanol. The resulting extract was subjected to colorimetry (λ=532 nm) to determine the amount of malondialdehyde (MDA) produced. As to the platelet-poor plasma (PPP) obtained from the same rat as above, the same procedure as above was repeated to determine the amount of MDA produced, and the difference between the two is indicated as MDA value. Comparing with the MDA values of the control group, the MDA production-inhibition (%) was determined.
The test compounds 1-9 were adjusted to the desired concentrations with water and the test compounds 11-33 and nicardipine were adjusted to a concentration of 5 mg/ml with an aqueous solution containing 10% of each of dimethyl sulfoxide and Cremophor and then diluted with water to the desired concentrations.

Row | SMILES | MDA production-inhibition [%]
21 | CC1=C(C(=O)OCCN(C)C/C(C)=C/c2ccc(Cc3cccnc3)cc2)C(c2cccc([N+](=O)[O-])c2)C(C(=O)OC(C)C)=C(C)N1 (centres unmarked) [compound 1] | 59.4
22 | COCCOC(=O)C1=C(C)NC(C)=C(C(=O)OCCN(C)C/C(C)=C/c2ccc(Cc3cccnc3)cc2)C1c1cccc([N+](=O)[O-])c1 (centres unmarked) [compound 3] | 65.8
23 | CCOC(=O)C1=C(C)NC(C)=C(C(=O)OCCOC/C(C)=C/c2ccc(Cc3cccnc3)cc2)C1c1cccc([N+](=O)[O-])c1 (centres unmarked) [compound 12] | 48.1
24 | CCOC(=O)C1=C(C)NC(C)=C(C(=O)OCCOC/C=C/c2ccc(Cn3ccnc3)cc2)C1c1cccc([N+](=O)[O-])c1 (centres unmarked) [compound 13] | 47.2
25 | CCOC(=O)C1=C(C)NC(C)=C(C(=O)OCCOC/C=C/c2ccc(Cc3cccnc3)cc2)C1c1cccc([N+](=O)[O-])c1 (centres unmarked) [compound 16] | 31.6
26 | COC(=O)C1=C(C)NC(C)=C(C(=O)OCCOC/C(C)=C/c2ccc(Cc3cccnc3)cc2)C1c1cccc([N+](=O)[O-])c1 (centres unmarked) [compound 17] | 58.6
27 | CCOC(=O)C1=C(C)NC(C)=C(C(=O)OCCOCCCc2ccc(Cc3cccnc3)cc2)C1c1cccc([N+](=O)[O-])c1 (centres unmarked) [compound 18] | 40.9
28 | CC1=C(C(=O)OCCOC/C(C)=C/c2ccc(Cc3cccnc3)cc2)C(c2cccc([N+](=O)[O-])c2)C(C(=O)OC(C)C)=C(C)N1 (centres unmarked) [compound 29] | 56.8

Test system: mouse pulmonary infraction model
Experiment: Antithrombosis activity, mouse pulmonary infraction model, paralytic time-shortening (0.15 ml epinephrine/collagen)
Format: in vivo, mouse (ICR strain)
Details: 1 h, oral, 10 mg/kg, challenge after one hour, 10 mice, read-out: Paralytic time-shortening percentage
Protocol: as §1
Comparing the paralytic time of the control group, the paralytic time-shortening percentage due to the compound to be tested was determined.
(§2) The test compounds shown in Table 4 were adjusted to the desired concentrations with water, and the test compounds shown in Table 5 were adjusted to a concentration of 5 mg/ml with an aqueous solution containing 10% by volume of each of dimethyl sulfoxide and Cremophor, and then diluted with water to the desired concentrations.

Row | SMILES | inhibition in vivo at 10 mg/kg [%]
29 | CC1=C(C(=O)OCCN(C)C/C(C)=C/c2ccc(Cc3cccnc3)cc2)C(c2cccc([N+](=O)[O-])c2)C(C(=O)OC(C)C)=C(C)N1 (centres unmarked) [compound 1] | 52.3

Test system: mouse pulmonary infraction model
Experiment: Antithrombosis activity, mouse pulmonary infraction model, prevention of death and paralysis (0.10 ml epinephrine/collagen)
Format: in vivo, mouse (ICR strain)
Details: 1 h; mouse, oral, 10 mg/kg, challenge after one hour; control 25.7%; read-out: Preventive percentage of death + paralysis for 10 minutes or more
Protocol: as §1
According to the G. DiMinno and M. J. Silver method [J. Pharmacol. Exp. Therap., 225 (1) 57-60 (1983)], a solution of the compound to be tested was orally administered to a mouse (ICR strain, male, 4 weeks old), and 0.15 ml of a mixed solution of epinephrine (100 μM) and collagen (150 μg/ml) was intravenously administered to the mouse after one hour, after which the paralytic time was measured. Comparing the paralytic time of the control group, the paralytic time-shortening percentage due to the compound to be tested was determined. The results obtained are shown in Table 4, in which the case where the paralytic time was 15 minutes was calculated as death.
Moreover, the same experiment was repeated, except that 0.10 ml of a mixed solution of epinephrine (100 μM) and collagen (150 μg/ml) was intravenously administered to the mouse and the effect of preventing the appearance of death and a case where the paralytic time was 10 minutes or more was checked and the results thereof are shown in Table 5.
as §2

Row | SMILES | responders at 10 mg/kg [%]
30 | CCOC(=O)C1=C(C)NC(C)=C(C(=O)OCCOC/C(C)=C/c2ccc(Cc3cccnc3)cc2)C1c1cccc([N+](=O)[O-])c1 (centres unmarked) [compound 12] | 77.8
31 | COC(=O)C1=C(C)NC(C)=C(C(=O)OCCOC/C(C)=C/c2ccc(Cc3cccnc3)cc2)C1c1cccc([N+](=O)[O-])c1 (centres unmarked) [compound 17] | 100
32 | CCOC(=O)C1=C(C)NC(C)=C(C(=O)OCCOC/C(C)=C/c2ccc(Oc3cccnc3)cc2)C1c1cccc([N+](=O)[O-])c1 (centres unmarked) [compound 19] | 77.8
33 | CCOC(=O)C1=C(C)NC(C)=C(C(=O)OCCOCCCc2ccc(Oc3cccnc3)cc2)C1c1cccc([N+](=O)[O-])c1 (centres unmarked) [compound 20] | 70
34 | CC1=C(C(=O)OCCOC/C(C)=C/c2ccc(Cc3cccnc3)cc2)C(c2cccc([N+](=O)[O-])c2)C(C(=O)OC(C)C)=C(C)N1 (centres unmarked) [compound 29] | 90

Test system: not listed separately
Experiment: Acute toxicity, intravenous, mice
Details: mouse, in vivo, mice (ICR, male, 4 weeks old, 5 per group)

Row | SMILES | LD50 [mg/kg]
35 | CCOC(=O)C1=C(C)NC(C)=C(C(=O)OCCOC/C(C)=C/c2ccc(Cc3cccnc3)cc2)C1c1cccc([N+](=O)[O-])c1 (centres unmarked) [compound 12] | ≥ 75
36 | CCOC(=O)C1=C(C)NC(C)=C(C(=O)OCCOC/C=C/c2ccc(Cc3cccnc3)cc2)C1c1cccc([N+](=O)[O-])c1 (centres unmarked) [compound 16] | ≥ 75
37 | COC(=O)C1=C(C)NC(C)=C(C(=O)OCCOC/C(C)=C/c2ccc(Cc3cccnc3)cc2)C1c1cccc([N+](=O)[O-])c1 (centres unmarked) [compound 17] | ≥ 75
38 | CCOC(=O)C1=C(C)NC(C)=C(C(=O)OCCOC/C(C)=C/c2ccc(Oc3cccnc3)cc2)C1c1cccc([N+](=O)[O-])c1 (centres unmarked) [compound 19] | ≥ 75
